Source: patent US12343326B2, “Psychoactive medicines and their use for treating psychiatric and neurological conditions and disorders” (Transcend Therapeutics, Inc., priority 2021, dated 2025)
Marks after values point to notes of the source that are not given here.

Experiments:
[1] = system: patients with PTSD or MDD; experiment: Methylone case series, Cohort 2: CGI-S/CGI-I efficacy and safety; format: in vivo, human
Experimental: CGI-S scale was also evaluated in a subset of patients from Cohort 2 post-treatment. Cohort 2 was evaluated for any observed or reported safety events following a single dosing session. Clinical Global Improvement Scale
Clinical Global Impressions (CGI) scale includes 2 components: CGI-S (“severity”) and CGI-I (“improvement”).
Cohort 2 is composed of 28 patients with PTSD or MDD treated in an outpatient setting.
Only sessions that included methylone dosing were counted as dosing sessions.
Single sessions occurred for 8 of the 28 cases with no booster in two of these cases. In the remainder of the cases, multiple sessions occurred, and booster doses were used in all or some of the remaining patients ([…]) with multiple booster doses used in some or all of the sessions in 15 patients.

Male Sprague Dawley rats = experiment: Forced Swim Test (FST); format: in vivo, rat
Source text: The Forced Swim Test (FST) is a classic, and the most used preclinical behavioral assay to screen compounds with antidepressant-like activity and has high predictive and face validity (Porsolt et al. (1977) Nature 266:730; Borsini and Meli (1988) Psychopharmacology 94:147). The premise of the FST is that when rats are placed into a cylinder filled with water, they will initially try to escape, but over time will become immobile. This increased immobility reflects behavioral despair, modeling a depressive-like state.
Forced Swim Test (FST): In the FST trial, rats were placed in a circular plexiglass container filled with water, with no means of escape. Water temperature was maintained at 22-25° C. and changed for every animal. After an acclimation period, rats were timed for inactivity (failure to struggle), activity, swim time and climbing time. Day 1 consisted of a 15 min acclimation trial, and Day 2 (24 h later) consisted of the 5 min test. A time sampling procedure was employed where animals were observed every 5 sec and scored for immobility, swimming, or climbing. Fluoxetine (10 mg/kg, IP, Sigma Aldrich) or 0.9% sterile saline vehicle (vehicle 3× group) were administered 23.5, 5, and 1 h before testing in the FST. […] The experimenter was blinded to treatment.
Forced Swim Test: In the FST trial, rats were placed in a circular plexiglass container filled with water, with no means of escape. Water temperature was maintained at 22-25° C. and changed for every animal. After an acclimation period, rats were timed for inactivity (failure to struggle), activity, swim time and climbing time. Day 1 consisted of a 15 min acclimation trial, and Day 2 (24 h later) consisted of the 5 min test. A time sampling procedure was employed where animals were observed every 5 sec and scored for immobility, swimming, or climbing. Fluoxetine (10 mg/kg, IP, Sigma Aldrich) or 0.9% sterile saline vehicle (vehicle 3× group) were administered 23.5, 5, and 1 h before testing in the FST. 2C-B (2.5, 10, or 20 mg/kg, IP, Cayman Chemical) or 0.9% saline vehicle (vehicle 1× group) were administered 30 min prior to FST testing. The experimenter was blinded to treatment.
Drug Treatment: Fluoxetine (10 mg/kg, IP, Sigma Aldrich) or 0.9% sterile saline vehicle were administered 23.5, 5, and 1 h before testing in the FST. […] Control animals received fluoxetine alone, methylone alone, or saline vehicle.
Forced Swim Test: In the FST trial, rats were placed in a circular plexiglass container filled with water, with no means of escape. Water temperature was maintained at 22-25° C. and changed for every animal. After an acclimation period, rats were timed for inactivity (failure to struggle), activity, swim time and climbing time. The experimenter and scorer were blind to treatment group. Day 1 consisted of a 15 min acclimation trial, and Day 2 (24 h later) consisted of the 5 min test. A time sampling procedure was employed where animals were observed every 5 sec and scored for immobility, swimming, or climbing.
Control animals received saline vehicle. The dosing schedule and experimental design are found in FIG. 12A.
The FST was performed and scored by an experimenter blind to treatment group according to standard protocols and based on a “modified FST” procedure (Slattery and Cryan (2012) Nat Protoc, 7:1009). Briefly, rats were placed in a circular plexiglass container (29.2 cm diameter, 49.5 cm height) filled with water to a depth of 30 cm so rats could not support themselves by touching the bottom of the tank. Water was maintained at 22-25° C. and was changed for every animal. Day 1 (Training) consisted of a 15 min acclimation trial, and Day 2 (Testing, 24 h later) consisted of the 5 min test. […]

[2] = system: myelin basic protein (MBP); experiment: Immunohistochemistry of myelin basic protein; format: in vivo, rat; conditions: 10 mg/kg IP, 24 h
Experimental: Immunohistochemistry: The in-life portion of the study was conducted at WuXi Apptec (Cranbury, NJ). Sectioning and staining of brains took place at Neuroscience Associates (NSA, Knoxville, TN). […] Brains were post-fixed in PFA before shipment to NSA for processing and staining. Hemisected brains were mounted, sectioned and stained using standard protocols with myelin-basic protein primary antibody (MBP SMI-99, 1:5000, Biolegend, San Diego, CA) and anti-mouse biotinylated secondary antibody (BA-2001, Vector Laboratories, Newark, CA). Slides were imaged using a Huron Digital Pathology TissueScope LE120 whole slide scanning system. 20× objective was used with a 0.4 μm/pixel resolution.

[3] = Cohort 2, N = 28, highest observed

CNC(C)C(=O)c1ccc2c(c1)OCO2 (stereo not drawn) [methylone, 3,4-methylenedioxy-N-methylcathinone]
Magnitude of Improvement: Number of cases with CGI-I 1 [1, 3]: 11* cases | Magnitude of Improvement: Number of cases with CGI-I 2 [1, 3]: 13 cases | Magnitude of Improvement: Number of cases with CGI-I 3 [1, 3]: 4 cases | Magnitude of Improvement: Number of cases with CGI-I 4 [1, 3]: 0 cases | Magnitude of Improvement: Number of cases with CGI-I 5 [1, 3]: 0 cases | Magnitude of Improvement: Number of cases with CGI-I 6 [1, 3]: 0 cases | Magnitude of Improvement: Number of cases with CGI-I 7 [1, 3]: 0 cases | number of patients with adverse events following methylone dosing ([1]; Cohort 2, N = 28, all ≥65 years of age): 3 patients | climbing behavior (FST) (Male Sprague Dawley rats; Example 8): significantly increased climbing behavior | effectiveness in the FST (Male Sprague Dawley rats; doses of 10 mg/kg or more): maximally effective | antidepressant-like effect (FST), multiple lower doses (Male Sprague Dawley rats; four […] IP doses 20.5, 8.5, 4.5 and 0.5 hours before testing): significant antidepressant-like effects | climbing (FST) (Male Sprague Dawley rats; methylone IP dose range, 30 min before testing): only increased at the lowest dose | swimming (FST) (Male Sprague Dawley rats; mid and high doses of methylone IP, 30 min before testing): significantly increased swimming | antidepressant-like effect (FST) vs. vehicle (Male Sprague Dawley rats; single dose 15 mg/kg PO, 2 hours before testing): significant antidepressant-like effect | immobility (FST) vs. saline vehicle (Male Sprague Dawley rats; single dose 5, 10, 15, 20 and 30 mg/kg IP, 30 min before testing): significantly reduced immobility | MBP expression, basolateral nucleus of the amygdala, vs. vehicle [2]: significant reduction in MBP | MBP expression, central nucleus of the amygdala, vs. vehicle [2]: significant reduction in MBP | MBP expression, cortex (control region) [2]: No change in MBP
